ChEMBL document CHEMBL1201862, “PubChem BioAssay data set” (2004)
Active and inactive are the calls of the source.

Key:
[1] = molecular target: Glyceraldehyde-3-phosphate dehydrogenase (Homo sapiens, UniProt P04406)
[2] = molecular target: T1, Tyrosine-protein phosphatase non-receptor type 7 (Homo sapiens, UniProt P35236); format: functional
T1 sequence (P35236 whole entry): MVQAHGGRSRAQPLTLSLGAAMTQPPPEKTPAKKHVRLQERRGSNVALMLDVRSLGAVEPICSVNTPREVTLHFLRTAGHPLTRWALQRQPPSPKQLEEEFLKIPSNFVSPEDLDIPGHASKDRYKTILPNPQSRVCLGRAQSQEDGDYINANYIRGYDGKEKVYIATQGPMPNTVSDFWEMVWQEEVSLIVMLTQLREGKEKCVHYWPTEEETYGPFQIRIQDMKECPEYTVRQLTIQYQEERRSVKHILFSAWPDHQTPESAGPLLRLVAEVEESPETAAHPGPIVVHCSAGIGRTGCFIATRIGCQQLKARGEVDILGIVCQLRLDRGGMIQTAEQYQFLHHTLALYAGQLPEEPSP

[3] = molecular target: T2, Dual specificity protein phosphatase 6 (Rattus norvegicus, UniProt Q64346)
T2 sequence (Q64346 whole entry): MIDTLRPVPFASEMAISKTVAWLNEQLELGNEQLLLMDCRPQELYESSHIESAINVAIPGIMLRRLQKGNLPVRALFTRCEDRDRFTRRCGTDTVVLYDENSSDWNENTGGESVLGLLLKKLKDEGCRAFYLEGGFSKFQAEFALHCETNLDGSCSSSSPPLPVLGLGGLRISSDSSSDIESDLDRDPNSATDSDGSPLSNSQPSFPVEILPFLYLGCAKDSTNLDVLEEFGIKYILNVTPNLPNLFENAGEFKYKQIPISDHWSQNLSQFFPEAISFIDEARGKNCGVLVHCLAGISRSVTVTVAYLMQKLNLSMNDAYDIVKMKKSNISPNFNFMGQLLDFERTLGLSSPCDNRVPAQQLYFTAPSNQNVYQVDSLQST

[4] = molecular target: Heat shock 70 kDa protein 1A (Homo sapiens, UniProt P0DMV8); test: Hsp70 inhibitors, SAR follow-up, biochemical, fluorescence polarization (AID 1072)
[5] = molecular target: T2, Dual specificity protein phosphatase 6; format: functional
[6] = molecular target: Heat shock cognate 71 kDa protein (Homo sapiens, UniProt P11142); test: In Vitro Hsc70 Dose Response Fluorescence Polarization Assay. [Related pubchem assays: 1072 ]
[7] = molecular target: 5-hydroxytryptamine receptor 1A (Homo sapiens, UniProt P08908); format: functional
[8] = molecular target: Lysosomal acid glucosylceramidase (Homo sapiens, UniProt P04062); test: Dose response cell-based high throughput screening assay to identify enhancers of beta-glucosidase activity. [Related pubchem assays: 784 ]; format: functional
[9] = molecular target: T3, Protein RecA (Mycobacterium tuberculosis, UniProt P9WHJ3); test: Fluorescence Cell-Free Homogeneous Dose Retest to Identify Inhibitors of RecA-Intein Splicing Activity. [Related pubchem assays (depositor defined):AID2097, AID2223, AID489010, AID492950]; format: functional
T3 sequence (P9WHJ3 whole entry): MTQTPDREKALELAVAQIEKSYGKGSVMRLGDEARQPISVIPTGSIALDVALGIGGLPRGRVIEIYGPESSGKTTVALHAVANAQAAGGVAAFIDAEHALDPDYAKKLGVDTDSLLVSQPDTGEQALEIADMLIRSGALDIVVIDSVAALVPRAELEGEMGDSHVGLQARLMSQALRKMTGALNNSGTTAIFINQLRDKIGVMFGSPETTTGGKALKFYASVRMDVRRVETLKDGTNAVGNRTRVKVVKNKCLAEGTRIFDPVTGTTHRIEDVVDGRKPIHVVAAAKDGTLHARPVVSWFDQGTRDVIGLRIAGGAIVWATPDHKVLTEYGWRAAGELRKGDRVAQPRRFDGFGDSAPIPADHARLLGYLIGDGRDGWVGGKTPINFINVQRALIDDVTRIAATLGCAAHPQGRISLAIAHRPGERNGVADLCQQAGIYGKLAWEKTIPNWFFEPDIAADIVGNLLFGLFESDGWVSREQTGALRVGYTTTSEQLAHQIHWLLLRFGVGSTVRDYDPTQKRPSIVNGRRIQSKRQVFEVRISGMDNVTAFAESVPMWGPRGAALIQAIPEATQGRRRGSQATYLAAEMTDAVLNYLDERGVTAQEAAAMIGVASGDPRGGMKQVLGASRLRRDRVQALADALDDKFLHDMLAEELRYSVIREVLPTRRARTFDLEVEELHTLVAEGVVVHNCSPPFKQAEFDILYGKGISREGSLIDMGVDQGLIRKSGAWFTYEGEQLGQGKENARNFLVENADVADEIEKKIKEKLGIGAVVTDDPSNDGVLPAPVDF

[10] = molecular target: T4, Replicative DNA helicase DnaB (Mycobacterium tuberculosis, UniProt P9WMR3); test: DnaB intein splicing inhibitors, dose response, biochemical, cell-free fluorescence (AID 449749); format: functional
T4 sequence (P9WMR3 whole entry): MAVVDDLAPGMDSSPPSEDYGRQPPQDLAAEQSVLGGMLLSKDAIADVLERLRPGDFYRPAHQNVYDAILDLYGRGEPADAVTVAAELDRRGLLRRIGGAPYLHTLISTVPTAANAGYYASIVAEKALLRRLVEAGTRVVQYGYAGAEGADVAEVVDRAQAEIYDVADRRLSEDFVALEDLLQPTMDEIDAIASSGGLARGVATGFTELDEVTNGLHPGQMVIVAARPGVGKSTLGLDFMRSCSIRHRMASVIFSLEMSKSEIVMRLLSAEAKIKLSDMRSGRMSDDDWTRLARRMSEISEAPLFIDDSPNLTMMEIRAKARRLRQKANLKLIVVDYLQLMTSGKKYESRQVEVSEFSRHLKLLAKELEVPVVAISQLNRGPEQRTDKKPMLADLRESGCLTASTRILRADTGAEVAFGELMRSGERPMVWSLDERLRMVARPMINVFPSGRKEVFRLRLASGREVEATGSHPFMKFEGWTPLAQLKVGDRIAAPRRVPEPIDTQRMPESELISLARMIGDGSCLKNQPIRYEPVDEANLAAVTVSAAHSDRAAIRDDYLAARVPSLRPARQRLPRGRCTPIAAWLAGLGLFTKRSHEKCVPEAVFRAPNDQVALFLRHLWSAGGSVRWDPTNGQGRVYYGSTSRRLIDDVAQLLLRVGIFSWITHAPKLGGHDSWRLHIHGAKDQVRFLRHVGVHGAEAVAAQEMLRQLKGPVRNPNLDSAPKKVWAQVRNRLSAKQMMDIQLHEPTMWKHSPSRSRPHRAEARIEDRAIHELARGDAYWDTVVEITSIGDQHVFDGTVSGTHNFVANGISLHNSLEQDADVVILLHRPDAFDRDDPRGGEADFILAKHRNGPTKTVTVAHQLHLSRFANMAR

[11] = molecular target: Hexokinase HKDC1 (Homo sapiens, UniProt Q2TB90); test: HKDC1 hexokinase inhibitors, dose response, biochemical, W721R variant (AID 504729); format: functional
[12] = test system: Vibrio harveyi; test: inhibitors of AI-2 quorum sensing in V. harveyi, dose response, LuxS, LuxPQ, dry powder, set 2 (AID 493072); format: functional, organism-based
[13] = test system: Vibrio harveyi; test: Quorum Sensing, LuxS, LuxPQ Measured in Microorganism System Using Plate Reader - 2035-01_Inhibitor_DoseNoFile_DryPowder_Activity. [Related pubchem assays (depositor defined):AID2106]; format: functional, organism-based
[14] = molecular target: T5, Short transient receptor potential channel 4 (Mus musculus, UniProt Q9QUQ5); test: mouse TRPC4 channel activators, dose response, cell-based, HEK293 TRPC4/mu-opioid, Fluo-4 calcium (AID 434937); format: functional
T5 sequence (Q9QUQ5 whole entry): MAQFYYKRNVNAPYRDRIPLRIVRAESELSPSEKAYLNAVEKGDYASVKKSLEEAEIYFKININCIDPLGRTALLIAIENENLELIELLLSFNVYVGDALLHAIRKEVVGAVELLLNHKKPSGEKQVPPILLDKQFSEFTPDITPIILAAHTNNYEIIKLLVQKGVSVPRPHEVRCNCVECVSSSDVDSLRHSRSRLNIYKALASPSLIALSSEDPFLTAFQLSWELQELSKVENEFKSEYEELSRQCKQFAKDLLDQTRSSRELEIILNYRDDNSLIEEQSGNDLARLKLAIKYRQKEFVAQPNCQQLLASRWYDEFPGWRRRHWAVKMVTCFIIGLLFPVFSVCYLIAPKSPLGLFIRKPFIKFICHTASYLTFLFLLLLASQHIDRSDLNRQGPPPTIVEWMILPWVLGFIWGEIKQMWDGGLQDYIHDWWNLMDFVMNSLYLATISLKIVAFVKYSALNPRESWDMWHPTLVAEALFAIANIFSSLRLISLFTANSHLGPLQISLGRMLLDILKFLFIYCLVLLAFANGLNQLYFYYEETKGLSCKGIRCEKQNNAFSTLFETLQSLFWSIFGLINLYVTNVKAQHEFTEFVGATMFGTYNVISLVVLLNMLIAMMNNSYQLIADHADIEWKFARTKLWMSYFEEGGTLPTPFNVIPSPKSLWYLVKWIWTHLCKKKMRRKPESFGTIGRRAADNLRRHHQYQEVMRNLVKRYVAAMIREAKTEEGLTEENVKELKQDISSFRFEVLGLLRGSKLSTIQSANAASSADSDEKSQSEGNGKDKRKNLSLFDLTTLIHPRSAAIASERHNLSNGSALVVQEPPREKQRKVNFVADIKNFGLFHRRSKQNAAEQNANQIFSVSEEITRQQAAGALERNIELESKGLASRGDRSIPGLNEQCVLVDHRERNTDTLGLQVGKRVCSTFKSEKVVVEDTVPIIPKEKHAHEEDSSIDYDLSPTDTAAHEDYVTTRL

[15] = molecular target: T1, Tyrosine-protein phosphatase non-receptor type 7; test: redox-dependent HePTP inhibition, mechanism study, biochemical, fluorescence (AID 2068); format: functional
[16] = molecular target: T6, Dual specificity protein phosphatase 3 (Homo sapiens, UniProt P51452); test: SAR VHR1 Fluorescent Assay for In Vitro dose response studies. [Related pubchem assays (depositor defined):AID1654, AID1661, AID1878, AID1992, AID2004, AID2070, AID2085]; format: functional
[17] = molecular target: T6, Dual specificity protein phosphatase 3; test: MOA VHR1 Fluorescent secondary assay for identification of redox-state modulating compounds. [Related pubchem assays (depositor defined):AID1654, AID1661, AID1878, AID1957]
[18] = molecular target: T6, Dual specificity protein phosphatase 3; test: VHR1 inhibitor Ki determination, SAR follow-up, biochemical, colorimetric (AID 2004)
[19] = molecular target: T7, Alkaline phosphatase, tissue-nonspecific isozyme (Homo sapiens, UniProt P05186)
T7 sequence (P05186 whole entry): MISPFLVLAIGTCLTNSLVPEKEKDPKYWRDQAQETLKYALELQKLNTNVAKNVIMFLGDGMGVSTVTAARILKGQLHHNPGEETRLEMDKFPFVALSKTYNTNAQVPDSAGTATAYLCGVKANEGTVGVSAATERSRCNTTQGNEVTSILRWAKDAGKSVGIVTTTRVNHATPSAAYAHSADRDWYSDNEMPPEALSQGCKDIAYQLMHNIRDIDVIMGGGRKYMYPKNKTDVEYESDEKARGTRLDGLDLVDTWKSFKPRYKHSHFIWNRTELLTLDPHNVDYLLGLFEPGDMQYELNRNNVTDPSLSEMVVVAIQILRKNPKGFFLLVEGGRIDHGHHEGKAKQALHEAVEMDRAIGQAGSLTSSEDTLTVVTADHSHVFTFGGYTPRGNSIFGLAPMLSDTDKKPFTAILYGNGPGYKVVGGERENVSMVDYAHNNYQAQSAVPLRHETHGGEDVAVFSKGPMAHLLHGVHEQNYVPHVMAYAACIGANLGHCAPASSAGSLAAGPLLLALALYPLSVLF

[20] = molecular target: Chaperone protein dnaK (Escherichia coli, UniProt C3TRK2); test: DnaK beta-domain binding affinity, SAR follow-up, orthogonal assay for DnaK modulator project, biophysical, isothermal titration calorimetry, full-length DnaK (AID 1495)
Sequence of Chaperone protein dnaK (C3TRK2 whole entry): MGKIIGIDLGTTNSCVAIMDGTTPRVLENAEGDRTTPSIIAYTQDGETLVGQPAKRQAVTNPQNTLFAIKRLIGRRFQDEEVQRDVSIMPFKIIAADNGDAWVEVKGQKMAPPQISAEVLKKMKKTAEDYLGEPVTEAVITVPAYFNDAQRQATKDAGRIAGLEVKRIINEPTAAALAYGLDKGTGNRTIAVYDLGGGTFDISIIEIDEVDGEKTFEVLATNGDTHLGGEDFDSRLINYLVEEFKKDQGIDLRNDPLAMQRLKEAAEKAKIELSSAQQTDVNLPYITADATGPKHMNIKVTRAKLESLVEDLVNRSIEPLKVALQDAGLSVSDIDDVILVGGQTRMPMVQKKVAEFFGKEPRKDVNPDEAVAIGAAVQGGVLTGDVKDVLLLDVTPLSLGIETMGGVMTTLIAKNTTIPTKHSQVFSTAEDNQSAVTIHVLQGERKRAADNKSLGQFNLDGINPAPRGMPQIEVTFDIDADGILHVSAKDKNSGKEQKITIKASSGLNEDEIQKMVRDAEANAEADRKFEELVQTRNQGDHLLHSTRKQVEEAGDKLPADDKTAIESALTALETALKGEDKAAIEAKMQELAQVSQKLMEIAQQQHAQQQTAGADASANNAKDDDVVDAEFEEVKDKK

T6 sequence (P51452 whole entry): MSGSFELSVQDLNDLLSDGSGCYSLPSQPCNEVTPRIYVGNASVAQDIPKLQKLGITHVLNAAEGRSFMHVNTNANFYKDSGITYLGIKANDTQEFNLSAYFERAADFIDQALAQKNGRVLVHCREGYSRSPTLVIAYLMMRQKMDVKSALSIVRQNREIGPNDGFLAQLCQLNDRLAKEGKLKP
Sequence of Glyceraldehyde-3-phosphate dehydrogenase (P04406 whole entry): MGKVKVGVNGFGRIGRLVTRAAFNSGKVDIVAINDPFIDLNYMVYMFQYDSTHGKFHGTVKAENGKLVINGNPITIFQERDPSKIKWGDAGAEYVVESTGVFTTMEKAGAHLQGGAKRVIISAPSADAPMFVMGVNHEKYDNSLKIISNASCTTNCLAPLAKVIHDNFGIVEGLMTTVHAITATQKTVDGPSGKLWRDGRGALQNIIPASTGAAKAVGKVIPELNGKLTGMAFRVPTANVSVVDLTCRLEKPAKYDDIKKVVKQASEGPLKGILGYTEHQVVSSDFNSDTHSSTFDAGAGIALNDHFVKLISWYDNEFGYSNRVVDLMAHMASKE
Sequence of Hexokinase HKDC1 (Q2TB90 whole entry): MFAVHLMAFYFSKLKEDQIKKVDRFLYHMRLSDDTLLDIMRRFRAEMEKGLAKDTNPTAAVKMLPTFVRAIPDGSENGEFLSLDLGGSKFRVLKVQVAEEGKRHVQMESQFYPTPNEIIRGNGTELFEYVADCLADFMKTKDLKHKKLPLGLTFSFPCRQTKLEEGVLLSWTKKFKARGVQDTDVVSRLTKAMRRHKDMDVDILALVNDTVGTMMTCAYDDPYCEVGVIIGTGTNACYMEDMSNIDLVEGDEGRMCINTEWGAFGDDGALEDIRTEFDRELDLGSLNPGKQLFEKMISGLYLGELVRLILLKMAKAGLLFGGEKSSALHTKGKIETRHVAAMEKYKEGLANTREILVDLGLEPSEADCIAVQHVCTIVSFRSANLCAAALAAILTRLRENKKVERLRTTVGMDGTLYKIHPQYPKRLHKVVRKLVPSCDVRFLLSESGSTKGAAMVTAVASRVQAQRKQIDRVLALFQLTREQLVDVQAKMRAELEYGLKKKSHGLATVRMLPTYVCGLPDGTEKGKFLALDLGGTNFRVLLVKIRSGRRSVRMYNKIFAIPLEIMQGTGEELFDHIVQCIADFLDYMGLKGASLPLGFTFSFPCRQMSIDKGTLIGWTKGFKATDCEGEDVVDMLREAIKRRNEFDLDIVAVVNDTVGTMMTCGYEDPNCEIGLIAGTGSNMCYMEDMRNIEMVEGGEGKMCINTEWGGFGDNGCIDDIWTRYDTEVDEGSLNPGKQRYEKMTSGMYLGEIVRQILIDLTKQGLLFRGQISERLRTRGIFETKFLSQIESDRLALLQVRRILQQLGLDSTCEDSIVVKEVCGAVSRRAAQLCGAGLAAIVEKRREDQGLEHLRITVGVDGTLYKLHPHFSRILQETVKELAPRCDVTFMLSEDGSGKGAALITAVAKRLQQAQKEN
Sequence of Heat shock cognate 71 kDa protein (P11142 whole entry): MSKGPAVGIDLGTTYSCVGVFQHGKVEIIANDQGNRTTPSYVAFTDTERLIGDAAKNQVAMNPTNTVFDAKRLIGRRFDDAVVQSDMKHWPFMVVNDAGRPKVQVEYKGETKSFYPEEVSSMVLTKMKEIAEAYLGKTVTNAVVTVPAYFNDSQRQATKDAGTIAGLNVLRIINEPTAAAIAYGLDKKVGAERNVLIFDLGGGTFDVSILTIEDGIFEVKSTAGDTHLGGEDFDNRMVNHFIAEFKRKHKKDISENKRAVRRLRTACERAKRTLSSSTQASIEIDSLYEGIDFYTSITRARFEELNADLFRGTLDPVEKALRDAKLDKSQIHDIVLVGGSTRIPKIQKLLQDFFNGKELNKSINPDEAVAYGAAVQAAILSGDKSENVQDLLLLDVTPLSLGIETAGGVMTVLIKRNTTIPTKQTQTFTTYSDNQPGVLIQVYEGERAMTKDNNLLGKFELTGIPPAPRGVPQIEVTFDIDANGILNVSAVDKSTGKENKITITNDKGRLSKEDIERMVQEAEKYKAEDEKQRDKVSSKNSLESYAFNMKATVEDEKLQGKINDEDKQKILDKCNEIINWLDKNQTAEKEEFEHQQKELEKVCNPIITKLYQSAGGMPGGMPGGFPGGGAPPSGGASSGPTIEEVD
Sequence of 5-hydroxytryptamine receptor 1A (P08908 whole entry): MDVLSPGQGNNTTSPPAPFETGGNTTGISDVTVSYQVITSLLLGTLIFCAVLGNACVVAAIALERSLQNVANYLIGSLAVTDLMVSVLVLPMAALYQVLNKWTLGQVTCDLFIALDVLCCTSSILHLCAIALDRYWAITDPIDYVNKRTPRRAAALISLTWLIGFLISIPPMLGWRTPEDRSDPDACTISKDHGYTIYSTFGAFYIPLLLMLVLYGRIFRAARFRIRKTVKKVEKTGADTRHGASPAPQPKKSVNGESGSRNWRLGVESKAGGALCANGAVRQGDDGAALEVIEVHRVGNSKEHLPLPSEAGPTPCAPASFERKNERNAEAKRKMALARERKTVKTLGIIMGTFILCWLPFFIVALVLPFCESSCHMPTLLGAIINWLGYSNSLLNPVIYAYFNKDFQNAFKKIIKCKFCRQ
Sequence of Heat shock 70 kDa protein 1A (P0DMV8 whole entry): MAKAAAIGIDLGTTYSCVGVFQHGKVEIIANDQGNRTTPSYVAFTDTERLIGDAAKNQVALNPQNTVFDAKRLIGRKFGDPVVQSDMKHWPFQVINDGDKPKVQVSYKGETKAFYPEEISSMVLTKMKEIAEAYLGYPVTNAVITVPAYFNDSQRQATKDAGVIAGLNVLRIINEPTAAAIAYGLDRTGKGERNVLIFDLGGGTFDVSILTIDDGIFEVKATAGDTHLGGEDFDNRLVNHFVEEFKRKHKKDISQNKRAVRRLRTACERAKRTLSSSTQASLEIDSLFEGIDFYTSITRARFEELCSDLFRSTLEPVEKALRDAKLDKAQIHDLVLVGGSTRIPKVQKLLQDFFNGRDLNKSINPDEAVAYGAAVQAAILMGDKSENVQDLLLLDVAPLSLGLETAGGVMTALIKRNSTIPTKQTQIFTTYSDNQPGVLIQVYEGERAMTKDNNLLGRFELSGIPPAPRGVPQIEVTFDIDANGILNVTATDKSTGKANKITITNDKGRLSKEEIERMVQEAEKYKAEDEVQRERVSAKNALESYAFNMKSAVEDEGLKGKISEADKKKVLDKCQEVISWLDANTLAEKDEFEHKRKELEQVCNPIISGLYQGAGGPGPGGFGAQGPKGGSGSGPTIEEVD
Sequence of Lysosomal acid glucosylceramidase (P04062 whole entry): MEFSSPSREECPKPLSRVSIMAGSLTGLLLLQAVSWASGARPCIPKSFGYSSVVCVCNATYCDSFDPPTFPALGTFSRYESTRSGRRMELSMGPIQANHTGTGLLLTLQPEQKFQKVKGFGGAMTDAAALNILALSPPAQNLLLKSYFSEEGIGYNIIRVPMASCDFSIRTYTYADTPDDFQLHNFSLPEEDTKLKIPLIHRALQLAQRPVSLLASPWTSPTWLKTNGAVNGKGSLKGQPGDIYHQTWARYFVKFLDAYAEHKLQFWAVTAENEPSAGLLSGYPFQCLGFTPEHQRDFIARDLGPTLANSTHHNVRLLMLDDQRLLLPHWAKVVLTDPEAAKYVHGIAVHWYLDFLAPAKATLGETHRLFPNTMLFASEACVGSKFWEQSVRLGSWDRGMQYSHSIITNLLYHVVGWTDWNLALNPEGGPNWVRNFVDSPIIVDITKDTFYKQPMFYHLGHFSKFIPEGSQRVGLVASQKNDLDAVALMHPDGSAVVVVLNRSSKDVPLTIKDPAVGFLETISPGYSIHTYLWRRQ

## O=C(O)C1Nc2c(I)cccc2C2C=CCC12 (stereo not given)
[1]
  IC50: 47.8 µM (active)
[2]
  IC50: 71.4 µM (active)
[3]
  IC50: > 100 µM (inactive)
[4]
  IC50: 3.13 µM (active)
[5]
  IC50: > 100 µM (inactive)
[6]
  IC50: 14.1 µM (active)

## CCc1ccc(NC(=O)Cn2c(SC)nc3ccccc32)cc1
[7]
  EC50: > 50 µM (not active)
[8]
  EC50: > 50 µM (not active)

## CC(OC(=O)c1cc(O)c2ccccc2c1O)C(=O)Nc1ccc(C(N)=O)cc1 (stereo not given)
[9]
  EC50: 4.51 µM (active)
[10]
  AC50: 5.11 µM (active)
[11]
  IC50: 52.7 µM (inactive)

## C=Cn1c(C(=O)O)ccc1-c1ccc(CC)cc1
[12]
  AC50: 5.53 µM (active)
[12]; Vibrio harveyi
  AC50: 4.66 µM (active)
[13]
  AC50: 2.73 µM (active)

## Cc1cc2nc3s/c(=C/c4ccc(-c5ccccc5C(=O)O)o4)c(=O)n3c2cc1C
[1]
  IC50: > 100 µM (not active)
[14]
  EC50: 5.96 µM (active)
[2]
  IC50: 3.63 µM (active)
[3]
  IC50: 9 µM (active)
[15]
  IC50: 2.65 µM (active)
[16]
  IC50: 7.49 µM (active)
[17]
  IC50: 2.39 µM (active)
[5]
  IC50: 26.4 µM (active)

## COc1ccc(C2C3C(=O)N(c4ccccc4)C(=O)C3N3CCCN23)cc1 (stereo not given)
[18]
  Ki: 112 µM (inactive)

## Cc1ccc(O)c(-c2cc(C(=O)NCc3ccccc3)[nH]n2)c1
[19]
  EC50: > 100 µM (not active)

## O=C(NCc1ccc(Cl)c(Cl)c1)c1cccs1
[20]
  Kd: 7.3 µM (active)
